The results in this text go back to patent publication US10130096B2, “Method for protecting useful plants or plant propagation material” (SYNGENTA PARTICIPATIONS AG, priority 2011, dated 2018).

One experiment relates to Puccinia recondita. In words: Puccinia recondita on Wheat/Pouch. The experiment is classed as in vivo. The settings on record: 20 ppm; wheat, pouch, inoculated 8 days after sowing, 8 days incubation. As to the method:
8 days after sowing wheat plants were inoculated by spraying a spore suspension on the test plants. After an incubation period of 8 days at 24° C./22° C.

Experiment [1] deals with Pythium ultimum. In words: Pythium ultimum on Cotton/Pouch. The experiment is classed as in vivo. The settings on record: Globisporangium ultimum, 168 h, cotton, pouch, 7 days at 17° C. From the text:
A spore/mycelium suspension is pipetted into the pouch simultaneously.

Experiment [2] relates to Glomerella lagenarium (Colletotrichum lagenarium). In words: Glomerella lagenarium liquid culture growth inhibition. The settings on record: Colletotrichum orbiculare, photometric, 3-4 days after application, read-out: control on Glomerella lagenarium. The experiment is classed as cell-based. The procedure: (§1) Conidia of the fungus from cryogenic storage are directly mixed into nutrient broth (PDB potato dextrose broth). After placing a (DMSO) solution of test compound into a microtiter plate (96-well format), the nutrient broth containing the fungal spores is added.

The test system of experiment [3] is Mycosphaerella arachidis (Cercospora arachidicola). In words: Mycosphaerella arachidis liquid culture growth inhibition. The settings on record: photometric, 4-5 days after application, read-out: control on Mycosphaerella arachidis. The experiment is classed as cell-based. The procedure: as §1
The next experiment has as its system Alternaria solani. In words: Alternaria solani on tomato plants. The experiment is classed as in vivo. The settings on record: 4-week old tomato plants cv. Roter Gnom, spray, inoculated two days after application. The procedure:
4-week old tomato plants cv. Roter Gnom are sprayed in a spray chamber with the formulated test compound diluted in water. The test plants are inoculated by spraying them with a spore suspension two days after application. The inoculated test plants are incubated at 22/18° C. (day/night) and 95% rh in a greenhouse and the percentage leaf area covered by disease is assessed when an appropriate level of disease appears on untreated check plants (5-7 days after application).

The subject of experiment [4] is Monographella nivalis (Microdochium nivale). Kind of experiment: Monographella nivalis liquid culture growth inhibition. The experiment is classed as cell-based. The settings on record: photometric, 4-5 days after application, read-out: control on Monographella nivalis. As to the method:
Conidia of the fungus from cryogenic storage are directly mixed into nutrient broth (PDB potato dextrose broth). After placing a (DMSO) solution of test compound into a microtiter plate (96-well format), the nutrient broth containing the fungal spores is added. The test plates are incubated at 24° C. and the inhibition of growth is determined photometrically 4-5 days after application.

The test system of experiment [5] is Pythium ultimum. In words: Pythium ultimum liquid culture growth inhibition. Particulars: Globisporangium ultimum, photometric, 2-3 days after application, read-out: control on Pythium ultimum. The experiment is classed as cell-based. As to the method:
Mycelia fragments and oospores of a newly grown liquid culture of the fungus are directly mixed into nutrient broth (PDB potato dextrose broth). After placing a (DMSO) solution of test compound into a microtiter plate (96-well format), the nutrient broth containing the fungal mycelia/spore mixture is added.

In experiment [6] the test system is Thanatephorus cucumeris (Rhizoctonia solani). In words: Thanatephorus cucumeris liquid culture growth inhibition. The experiment is classed as cell-based. Particulars: photometric, 3-4 days after application, read-out: control on Thanatephorus cucumeris. As to the method:
Mycelia fragments of a newly grown liquid culture of the fungus are directly mixed into nutrient broth (PDB potato dextrose broth). After placing a (DMSO) solution of the test compounds into a microtiter plate (96-well format), the nutrient broth containing the fungal material is added. The test plates are incubated at 24° C. and the inhibition of growth is determined photometrically 3-4 days after application.

In another experiment the test system is Fusarium culmorum. In words: Fusarium culmorum liquid culture growth inhibition. The experiment is classed as cell-based. The settings on record: photometric, 3-4 days after application, read-out: control on Fusarium culmorum. As to the method:
Conidia of the fungus from cryogenic storage are directly mixed into nutrient broth (PDB potato dextrose broth). After placing a (DMSO) solution of test compound into a microtiter plate (96-well format), the nutrient broth containing the fungal spores is added. The test plates are incubated at 24° C. and the inhibition of growth is determined photometrically 3-4 days after application.

Experiment [7] deals with Pseudoperonospora cubensis. In words: Pseudoperonospora cubensis on Cucumber/Pouch. The settings on record: 60 ppm; cucumber, pouch, inoculated 8 days after sowing, 7 days incubation. The experiment is classed as in vivo. The source says:
8 days after sowing cucumber plants were inoculated by spraying a spore suspension on the test plants.

Experiment [8] deals with Pythium ultimum. Kind of experiment: Example B-5: seed treatment against Pythium ultimum on cotton. The experiment is classed as in vivo. The settings on record: Globisporangium ultimum, rate of 200 g/100 kg seeds, infested soil, number of germinated, healthy plants. The procedure: The trial is kept for 1 week in a growth room at 20° C. and darkness. After this period the trial is transferred to a greenhouse where a temperature of 21° C. and a 14 h light period is provided until the trial is finished. The following assessments are made: number of germinated, healthy plants. Each number is determined for 150 seeds per treatment (3 replicates a 50 seeds).

The test system of experiment [9] is Botryotinia fuckeliana (Botrytis cinerea). In words: Botryotinia fuckeliana liquid culture growth inhibition. The experiment is classed as cell-based. Particulars: photometric, 3-4 days after application, read-out: control on Botryotinia fuckeliana. The procedure: Conidia of the fungus from cryogenic storage are directly mixed into nutrient broth (Vogels broth). After placing a (DMSO) solution of test compound into a microtiter plate (96-well format), the nutrient broth containing the fungal spores is added.

SMILES strings stand for the structures. A value given as a limit tells only on which side of the number the result lay.

One may read the pest or weed control as the degree to which the test organism was suppressed or injured, in per cent.

For the compound `O=[N+]([O-])c1ccc2c(c1)B(O)OC2` [Compound 7, 6-Nitro-3H-benzo[c][1,2]oxaborol-1-ol], the “control on Puccinia recondita” value in the experiment with Puccinia recondita was “at least 50%”. The same compound returned a pest or weed control at 20 ppm in the experiment on Pythium ultimum [1] of no less than 50%. The inhibition of growth at 200 ppm (in experiment [2]; in experiment [3]; in experiment [4]; in the experiment on Pythium ultimum [5]) was no less than 80% each time. The compound also displayed a pest or weed control at 60 ppm in the experiment with Alternaria solani of no less than 60%.

On to `NCCCOB1OCc2cc(Cl)ccc21` [Compound 5, 3-(5-Chloro-3H-benzo[c][1,2]oxaborol-1-yloxy)-propylamine], for which the inhibition of growth at 200 ppm (in [6]; in the experiment with Fusarium culmorum; in experiment [2]; in experiment [3]; in [9]; in [4]) was no less than 80% in each case. Besides, the inhibition of growth at 200 ppm with Pythium ultimum [5] was no less than 80%. Further, in the experiment with Pythium ultimum [1], the pest or weed control at 20 ppm is no less than 50%. In addition, the “control on Pseudoperonospora cubensis” value in experiment [7] is on record as “at least 50%”. For the same compound, the pest or weed control at 200 g/100 kg seeds in the experiment with Pythium ultimum [8] was no less than 50%. This compound also had a pest or weed control at 60 ppm with Alternaria solani of no less than 60%.
